Experimental data taken from paper PMC12530843, “Identification of a New Interesting BAG3 Modulator Able to Disrupt Cancer‐Related Pathways” (Chemmedchem, 2025).

What was measured:
BAG3 = target: T1, BAG3 (Homo sapiens, UniProt O95817); assay: t-LiP-MS (targeted limited proteolysis-MS) in HeLa cell lysate; type: binding; details: SP18 100 µM, subtilisin 30 min
T1 construct: endogenous in cells; host or cells: HeLa cell lysate
Procedure: To develop the t‐LiP‐MS experiment, MRM methods were optimized by selecting tryptic peptides for BAG3 (UniProt Accession: O95817) using the Human PeptideAtlas data repository in combination with SRMAtlas for their daughter ion identification. First, the three best transitions for each peptide were selected (obtaining a list of 57 transitions) and tested on a tryptic‐digested HeLa cell lysate, following the protocol of Capuano et al., 2024.^[ [41] ^] For chromatographic separation, 15 µL of peptide mixture samples (dissolved in 10% formic acid (FA) to a final concentration of 2 µg µL^−1) were injected and separated on an Aeris Peptide XB C18 column (50 × 2.1 mm, 3.6 μm, 100 Å, Phenomenex, Torrance, USA) using a gradient from 5% to 95% B in 12 min (A: 0.1% FA in H2O, B: 0.1% FA in CH3CN). QTrap parameters were as follows: curtain gas (CUR) = 30; ion‐spray voltage (IS) = 5500; temperature (TEM) = 250 °C; ion source gas 1 (GS1) = 25; ion source gas 2 (GS2) = 25; declustering potential (DP) = 80; entrance potential (EP) = 15; collision cell exit potential (CXP) = 12. Data acquisition and processing were performed using Analyst software 1.6.2 (AB Sciex, Foster City, CA, USA). At the end of the preliminary experiment, 14 best transitions were selected for the final MRM method.
For the t‐Lip‐MS experiment, HeLa cell lysate ([…]) was divided into aliquots and incubated for 1 hr either with DMSO (control sample) or SP18 (100 µM in DMSO) at room temperature under shaking (Mini‐Rotator, Biosan). Samples were then first subjected to limited proteolysis with the nonspecific enzyme subtilisin (enzyme‐to‐proteins ratio of 1:1500 w/w) for 30 min, at room temperature and under continuous shaking (500 rpm, Thermomixer, Biosan) and then extensively digested with the specific protease trypsin (enzyme to proteins ratio of 1:100 w/w, overnight, room temperature, 300 RPM).^[ [42] ^] […] Fold change (Fc) (the ratio between the peak area in the treated sample and control sample) was calculated for each peptide, and only those with Fc ≥1.5 and p‐value ≤0.05 were considered protected.^[ [41] ^]

HeLa cells [1] = assay: Annexin V-FITC/PI apoptosis staining; type: cell-based, human; details: 72 h
Procedure: Apoptosis in HeLa cells was evaluated using Annexin V‐FITC/PI staining. Hela cells (20 × 10^3) were seeded into 24‐well plates and incubated for 72 h with compound 2. The final concentration of DMSO for the tested compound was 0.1%, which was consistent with the percentage of DMSO used in the negative control. After treatments, cells were resuspended in a 100 μL of assay buffer per well, after which 5 μL of Annexin V‐FITC and 1 μL of PI reagents were added. […] The cells were analyzed with a Becton Dickinson FACScan flow cytometer using the Cell Quest software, version 4 (Franklin Lakes, NJ, USA).

HeLa cells [2] = assay: Thioflavin T (ThT) protein misfolding staining; type: cell-based, human; details: HeLa, 3, 6 and 12 µM, 72 h; p < 0.01 (3 µM), p < 0.001 (6, 12 µM) vs. Ctrl
Procedure: Protein misfolding was analyzed by using Thioflavin T (ThT, Sigma Aldrich, St. Louis, MO, USA) staining.^[ [39] ^] HeLa cells (4 × 10^3 cells well^−1) were grown in 96‐well plates and allowed to adhere for 24 h. The medium was then replaced, and the cells were treated with compound 2 (3, 6, and 12 µM) for 72 h. The final concentration of DMSO for the tested compound was 0.1%, which is consistent with the percentage of DMSO used in the negative control. After treatments, the culture medium was replaced, cells were washed with PBS and 100 μL well^−1 of ThT was added (final concentration, 20 µM). After incubation at 37 °C for 20 min in the dark, live cells were analyzed by using ZOE Fluorescent Cell Imager microscope (Biorad, Hercules, California, USA). Magnification, 20×. Scale bar: 100 μm (N ≥ 5). Quantitative analyses were performed in end point mode using a PerkinElmer EnSpire multimode plate reader (excitation/emission 450 nm/482 nm).

T1 sequence (O95817 whole entry): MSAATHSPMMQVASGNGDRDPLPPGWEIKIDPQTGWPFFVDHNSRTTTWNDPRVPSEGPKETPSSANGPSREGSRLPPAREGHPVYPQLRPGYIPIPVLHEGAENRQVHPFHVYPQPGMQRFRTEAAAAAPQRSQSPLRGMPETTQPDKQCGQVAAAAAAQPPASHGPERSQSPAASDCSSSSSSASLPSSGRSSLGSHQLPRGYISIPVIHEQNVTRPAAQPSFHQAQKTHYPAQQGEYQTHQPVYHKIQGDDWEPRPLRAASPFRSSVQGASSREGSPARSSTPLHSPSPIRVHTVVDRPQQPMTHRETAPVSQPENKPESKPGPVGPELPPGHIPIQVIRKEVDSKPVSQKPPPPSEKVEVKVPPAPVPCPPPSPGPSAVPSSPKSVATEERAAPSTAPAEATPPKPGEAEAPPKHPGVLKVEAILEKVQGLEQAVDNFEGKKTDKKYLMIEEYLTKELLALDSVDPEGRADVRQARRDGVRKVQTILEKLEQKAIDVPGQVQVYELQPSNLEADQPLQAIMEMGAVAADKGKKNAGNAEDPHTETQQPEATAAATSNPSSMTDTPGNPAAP

## O=C(OCc1cn(Cc2ccc(C(=O)c3ccccc3)cc2)nn1)c1cccc([N+](=O)[O-])c1 [SP18]
BAG3; p value 0.01
  Fold change (Fc) of protected BAG3 peptide V [432–445] K: 1.74
BAG3; p value 0.02
  Fold change (Fc) of protected BAG3 peptide E [461–473] R: 1.67
BAG3; p value 0.04
  Fold change (Fc) of protected BAG3 peptide T [231–249] K: 1.68

## O=C(OCc1cn(Cc2ccc3c(c2)C(=O)c2ccccc2C3=O)nn1)c1cccc([N+](=O)[O-])c1 [Compound 2, (1‐((9,10‐Dioxo‐9,10‐dihydroanthracen‐2‐yl)methyl)‐1H‐1,2,3‐triazol‐4‐yl)methyl 3‐nitrobenzoate]
HeLa cells [1]; 20 µM, p < 0.05 vs. control
  cells undergoing apoptosis: 21.6 ± 1.14%
HeLa cells [1]; 30 µM, p < 0.05 vs. control
  cells undergoing apoptosis: 28.0 ± 3.41%
HeLa cells [1]; 50 µM, p < 0.01 vs. control
  cells undergoing apoptosis: 40.2 ± 2.11%
HeLa cells [2]
  protein misfolding and aggregate formation (ThT): significant induction of protein misfolding and aggregate formation
